The values that follow come from ChEMBL document CHEMBL1157539, “Thousands of chemical starting points for antimalarial lead identification” (Nature, 2010).

In this assay the test system is Plasmodium falciparum. As to the kind of experiment: GSK_TCMDC: Inhibition of Plasmodium falciparum 3D7 in whole erythrocytes, using parasite LDH activity as an index of growth. It is filed as functional, organism-based. Particulars: Plasmodium falciparum, 3D7.
In the case of `C[C@@H](CC1CCCCC1)NCc1ccccc1O`, the XC50 was determined as 932 nM.

For the molecule `Cc1ccc(NC(=O)c2ccnc(N3CCN(c4ccncc4)CC3)c2)cc1F`, the XC50 was found to be 873 nM. Regarding `NCCC(=O)Nc1ccc(-c2cnc3[nH]cc(-c4ccc(C(=O)O)cc4)c3c2)cn1`, the XC50 was determined as 842 nM. Next, `CCCCCCCN1CC[C@@H](CCCc2ccnc3ccc(OCCC4CCNCC4)cc23)[C@@H](CC)C1`: 610 nM; `CC(C)[C@H]1CC[C@H](C)C[C@@H]1OC(=O)N[C@@H](Cc1ccc(O)cc1)C(=O)NC1CCN(Cc2ccc(OCCCN(C)C)cc2)C1` (stereo partly drawn): 764 nM.

In the case of `O=C(NCc1cccc(F)c1)Nc1ccc(-c2ccc(-c3nc4cc(C(F)(F)F)ccc4[nH]3)cc2)cc1`, the XC50 came to 769 nM. Next, `Oc1ccccc1CNC1CCCCC1NCc1ccccc1O` (stereo not drawn): 950 nM. The figure for `CC(C)CCNC(=O)c1cnc2c(O)cccc2c1Nc1cccc(NC(=O)c2ccc(F)cc2)c1` is 913 nM.

In the case of `N=C(N)NC(=O)Nc1cc(Br)c(Cl)c(C(F)(F)F)c1`, the XC50 came to 758 nM. The figure for `O=C(NCCCCCN1CCCN(C(=O)Nc2ccc(Cl)c(C(F)(F)F)c2)CC1)C1CC1c1ccc(Cl)c(Cl)c1` (stereo not drawn) is 852 nM; for `CC(C)c1sc(N2CCN(C)CC2)nc1C(=O)Nc1ccc(F)cc1C(F)(F)F` it is 190 nM. The figure for `N=C(N)Nc1nc(-c2cccc(NC(=O)NCc3cccc4ccccc34)c2)cs1` is 841 nM; for `CCCCNCc1ccc(OCc2cccc(COc3ccc(CNCCCC)cc3I)c2)c(I)c1` it is 1120 nM. Next, `O=c1c2ccc(Sc3ccccn3)cc2n(-c2ccccc2)c2cc(Sc3ccccn3)ccc12`: 203 nM; `CCOc1cc(C)ccc1C1CCN(CCCCNC(=O)c2coc(-c3ccc(Cl)cc3)c2)CC1`: 914 nM; `COc1cc2ncnc(Nc3ccc(OCc4ccccc4)c(I)c3)c2cc1OC`: 712 nM. For the molecule `CCCCC(=O)Nc1nonc1-c1ccc(OCC)c(OCC)c1`, the XC50 was 912 nM. Turning to `CCc1ccc(NC(=O)N(CCCn2ccnc2)Cc2csc(-c3ccc(CNCc4ccccc4)cc3)n2)cc1`, the XC50 stood at 757 nM.

As for `CCCNCc1ccc(-c2ccc(CN(CCOC)C(=O)COc3ccccc3Cl)cc2)nc1`, the XC50 was determined as 912 nM.

In turn, `O=C(CCOc1ccccc1)NCC1CCCO1` (stereo not drawn) yielded an XC50 of 1000 nM.

In turn, `COc1ccc(N2CCN(CCCCNC(=O)c3ccc(NC(=O)c4ccc(Cl)cc4)cc3)CC2)c(C)c1` returned an XC50 of 758 nM. Next, `CCN(CC(C)O)C(=O)c1ccc(-c2cccc(-c3nc4cccc(C)c4[nH]3)c2)cc1` (stereo not drawn): 639 nM; `Cc1cccc2nc(-c3cccc(-c4cccc(CNC(C)C)c4)c3)[nH]c12`: 336 nM. The figure for `O=C(NCC1CC1)C1CCN(C(c2ccccc2)c2ccc(Cl)c(Cl)c2)CC1` (stereo not drawn) is 369 nM; for `CCN(CC)CCOc1ccc(C(O)(C#CC(O)(c2ccccc2)c2ccc(OCCN(CC)CC)cc2)c2ccccc2)cc1` (stereo not drawn) it is 1310 nM; for `CCc1cc(NC2CCN(C)CC2)nc(Nc2cccc(OC)c2)n1` it is 856 nM. The figure for `O=C(c1ccc(F)cc1)N1CCOC(CCN2CCC(c3ccccc3)CC2)(c2ccc(Cl)c(Cl)c2)C1` (stereo not drawn) is 749 nM; for `CCCC(CNC(=O)c1cc2c(Cl)cc(Cl)cc2[nH]1)CNc1cc(=O)c2ccccc2[nH]1` (stereo not drawn) it is 903 nM.

In turn, `Cc1nc(C)c(-c2ccc(Oc3ccc(OC(F)(F)F)cc3)cc2)c(OC(=O)N(CCNC(C)C)C(C)C)c1Br` showed an XC50 of 171 nM. Turning to `Clc1nc(Cl)c2c(ccn2Cc2ccccc2)n1`, the XC50 worked out at 787 nM. The figure for `NC(=O)c1ccccc1OCC(=O)Nc1cccc(-c2ccc(-c3nc4cc(C(F)(F)F)ccc4[nH]3)cc2)c1` is 647 nM; for `COC(=O)c1sc2ccccc2c1NC(=O)c1ccc(C)c(C)c1` it is 1070 nM. Next, `Cc1noc(C)c1-c1ccc2c(Nc3ccccc3C(C)(C)C)c(C(=O)NCc3ccc(C(F)(F)F)cc3)cnc2c1`: 762 nM.

The molecule `COc1cc(NC(=O)c2ccc3oc4ccccc4c3c2)ccc1OCCN1CCCCC1` showed an XC50 of 924 nM. The figure for `FC(F)(F)c1ccc2[nH]c(-c3ccc(-c4cccc(CNCc5ccccc5)c4)s3)nc2c1` is 153 nM. Next, `c1ccc(-n2ncc(CNCc3ccc(-c4cccc(-c5nc6ccccc6[nH]5)c4)cc3)n2)cc1`: 1230 nM; `Cc1noc(C)c1-c1ccc2c(Nc3ccccc3C(C)(C)C)c(C(=O)NCc3ccc4c(c3)OCO4)cnc2c1`: 912 nM. `Cc1ccc(Nc2nc(N)c3ccccc3n2)cc1` returned an XC50 of 839 nM. Next, `O=c1[nH]c2c(cc1CNC1CCCCC1)c(-c1ccc(F)cc1)nn2-c1ccccc1`: 804 nM; `Cc1ccccc1CNc1noc(-c2c(-c3ccccc3)noc2C)n1`: 902 nM. Next, `CC(C)NCc1ccc(-c2ccc(-c3nc4cc(C(F)(F)F)ccc4[nH]3)cc2)cc1`: 266 nM; `OC(CNCCCc1ccccc1)c1cc(OCc2ccccc2)cc(OCc2ccccc2)c1` (stereo not drawn): 851 nM. As for `CNC(=O)CSc1nnc(-c2ccc(C)cc2)c(-c2ccc(C)cc2)n1`, the XC50 was found to be 600 nM. The figure for `NC1CCCN(Cc2ccc(-c3ccc(-c4nc5cc(F)ccc5[nH]4)s3)cc2)C1` (stereo not drawn) is 177 nM; for `Nc1nc(N)c2c(ccc3nn(S(=O)(=O)N4CCCC4)cc32)n1` it is 96.6 nM; for `O=C(C=Cc1ccc(Cl)c(Cl)c1)NCCCCCN1CCC(CCNC(=O)/C=C/c2ccccc2)CC1` it is 783 nM. The figure for `OC1(c2ccc(Cl)c(C(F)(F)F)c2)CCN(CCOC2c3ccccc3CSc3ccc(Cl)cc32)CC1` (stereo not drawn) is 799 nM; for `CCCCCCOc1ccc2ccccc2c1CNCCCCCCNCc1c(OCCCCCC)ccc2ccccc12` it is 1060 nM; for `CC(C)c1ccc(NC(S)=NN=Cc2ccccn2)cc1` it is 724 nM. Molecule `CCCN(CCC)CCCNc1ccc(C(=O)Nc2ccc(C(C)C)cc2)cc1[N+](=O)[O-]` returned an XC50 of 709 nM. Next, `CN1CCCC(COc2cc3c(cc2Br)CCN3C(=O)Nc2ccc(-c3ccncc3)c(Cl)c2)C1` (stereo not drawn): 234 nM; `c1cc(CN2CCN(c3ccncc3)CC2)cc(-c2ccc(-c3nc4ccccc4[nH]3)cc2)c1`: 153 nM; `CCOc1cc(C)ccc1C1CCN(CCCCNC(=O)c2ccc(-c3ccc(Cl)cn3)cc2)CC1`: 1610 nM. Next, `CN(CC(=O)Nc1ccc(F)c(F)c1F)c1ncnc2sc(-c3ccccc3)cc12`: 874 nM; `Cc1nc(-c2ccc(-c3ccc(C(=O)Nc4ccc(I)c(OCC5CCCN5C)c4)cc3)c(C)c2)no1` (stereo not drawn): 33 nM; `O=C1COc2ccc(S(=O)(=O)N3CCC[C@@H]3CCN3CCC(c4c[nH]c5cnccc45)CC3)cc2N1`: 865 nM.

Molecule `CCCCNc1c(C(=O)OCC)c(C)nc2c1[nH]c1ccccc12` gave an XC50 of 680 nM. Next, `CC1CC(NCCCNc2cc(=O)c3ccccc3[nH]2)c2c(Cl)c(Cl)cc(Cl)c21` (stereo not drawn): 981 nM; `CNCc1ccc(-c2ccc3ccnc(N)c3c2)cc1`: 262 nM; `N#Cc1ccc(N(CC(=O)NCCc2ccccc2)CC2CC2)c2ccccc12`: 734 nM. The figure for `Cc1ccc(C(c2nnnn2C2CCCC2)N(Cc2ccco2)Cc2ccccc2Cl)cc1` (stereo not drawn) is 959 nM. Next, `CCCc1ccccc1Nc1nc(C)cc(N(CC)CCCN2CCCCC2)n1`: 622 nM; `Cc1nc(C)c(-c2ccc(Oc3ccc(OC(F)(F)F)cc3)cc2)c(OC(=O)c2ccc(CN(C)C)cc2)c1Cl`: 137 nM.
